Results published in patent US8445505B2 (IRM LLC, priority 2008, dated 2013).
pIC50: −log10 of the molar value.

The molecules below were run against T1, IGF1R Ba/F3 (Homo sapiens, UniProt P08069) (assay: Ba/F3 Cell Viability Inhibition Assay (Tel-TK transformed Ba/F3 lines)). Settings: Tel-TK (IGF1R) transformed Ba/F3 cells, 48 hours incubation, cell viability (Britelite luminescence).
T1 sequence (P08069 999-1274 limits assumed): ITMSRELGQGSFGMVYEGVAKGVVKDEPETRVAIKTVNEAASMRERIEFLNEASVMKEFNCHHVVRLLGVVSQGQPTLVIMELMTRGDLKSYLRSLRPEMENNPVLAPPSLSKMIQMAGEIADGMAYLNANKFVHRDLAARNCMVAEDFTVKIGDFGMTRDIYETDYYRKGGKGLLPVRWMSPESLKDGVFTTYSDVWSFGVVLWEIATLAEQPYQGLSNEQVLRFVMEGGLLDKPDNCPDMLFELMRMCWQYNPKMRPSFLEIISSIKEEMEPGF
Type: cell-based, murine
Parameters: most likely, as the lines are called Tel-TK) or BCR (P11274)
Source text: Ba/F3 is a murine IL-3-dependent pro-B lymphoma cell line. Parental Ba/F3 cells are used to generate a panel of sublines whose proliferation and survival is rendered IL-3-independent by stable transduction with individual tyrosine kinases activated by fusion with the amino-terminal portion of TEL (amino acid 1-375) or BCR. In order to generate Ba/F3 cell lines transformed by Tel-Tyrosine Kinase (TK) fusions, parental Ba/F3 cells are infected with a retrovirus harboring each TEL-fusion kinase and subjected to puromycin selection and IL-3 withdrawal to obtain IL-3-independent, transformed Ba/F3 cells.
Each transformed Ba/F3 cells are cultured in RPMI-1640 media (Gibco Cat #11875093, Carlsbad, Calif.) supplemented with 10% FBS (Hyclone Cat #SV30014.03, Logan, Utah), 4.5 g/L glucose (Sigma #G5400, St.Louis, Mo.), 1.5 g/L sodium bicarbonate (Biowhittaker #17-613E, Walkersville, Md.) and Pen/Strep (Gibco #10378-016, Carlsbad, Calif.). Cells are splitted twice weekly.
The potency of test compounds against various Tel-TK transformed Ba/F3 lines is determined as follows. Exponentially growing BaF3 Tel-TK cells are diluted in fresh medium to 75,000 cells/mL and seeded into 384-well plates (3750 cells/well) at 50 μL/well using a gill liquid dispenser (BioTek, Winooski, Vt., USA). […] 25 μL Britelite (Perkin Elmer) is added and luminescence is quantified using Analyst GT (Molecular Devices). […]
With `Cc1cc(Nc2nc(Nc3cc(C)c(-c4cccnc4)cc3C)ncc2Cl)n[nH]1` [Compound 13] the pIC50 was 7.54.

Biological target: T1, IGF1R Ba/F3
Assay: as above
Type: cell-based, murine
Parameters: the printed alternative
Settings: Tel-TK (IGF1R) transformed Ba/F3 cells, 48 hours incubation, cell viability (Britelite luminescence)
Remark: another data set of the same source
Outline: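 Murine pro-B Ba/F3 cells made IL-3-independent by TEL(1-375)- or BCR-fused tyrosine kinases; parental line run with 1 ng/ml IL-3 (final). 3750 cells/well exposed to DMSO-diluted compound for 48 h at 37 °C; viability read by Britelite luminescence. IC50 from logistic fit, concentration reducing viability to 50% of DMSO control.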
Molecule `Cc1cc(Nc2nc(Nc3cc(C)c(-c4ccc5c(c4)CCN(C)C5)cc3C)ncc2Cl)n[nH]1` [Compound 75, 5-chloro-N2-(2,5-dimethyl-4-(2-methyl-1,2,3,4-tetrahydroisoquinolin-6-yl)phenyl)-N4-(5-methyl-1H-pyrazol-3-yl)pyrimidine-2,4-diamine] has a pIC50 of 7.27.
`Cc1cc(Nc2nc(Nc3ccc(C4CCN(CC(N)=O)CC4)c(C)n3)ncc2Cl)n[nH]1` [Compound 76, 2-(4-(6-(5-chloro-4-(5-methyl-1H-pyrazol-3-ylamino)pyrimidin-2-ylamino)-2-methylpyridin-3-yl)piperidin-1-yl)acetamide] showed a pIC50 of 5.75.
With `Cc1cc(Nc2nc(Nc3ccc(C4CCN(CC(N)=O)CC4)c4ccncc34)ncc2Cl)n[nH]1` [Compound 77, 2-(4-(8-(5-chloro-4-(5-methyl-1H-pyrazol-3-ylamino)pyrimidin-2-ylamino)isoquinolin-5-yl)piperidin-1-yl)acetamide] the pIC50 was 5.48.
Work on `Cc1cc(Nc2nc(Nc3ccc(C4CCN(CCS(C)(=O)=O)CC4)c4cccnc34)ncc2Cl)n[nH]1` [Compound 78, 5-chloro-N4-(5-methyl-1H-pyrazol-3-yl)-N2-(5-(1-(2-(methylsulfonyl)ethyl)piperidin-4-yl)quinolin-8-yl)pyrimidine-2,4-diamine] yielded a pIC50 of 6.39.
`Cc1cc(Nc2nc(Nc3cc4c(cc3F)CN(C3CCNCC3)C4=O)ncc2Cl)n[nH]1` [Compound 79, 6-(5-chloro-4-(5-methyl-1H-pyrazol-3-ylamino)pyrimidin-2-ylamino)-5-fluoro-2-(piperidin-4-yl)isoindolin-1-one] gave a pIC50 of 5.19.
In the case of `Cc1cc(Nc2nc(Nc3cc4c(cc3F)CN(C3CCNCC3)C4=O)ncc2Cl)no1` [Compound 80, 6-(5-chloro-4-(5-methylisoxazol-3-ylamino)pyrimidin-2-ylamino)-5-fluoro-2-(piperidin-4-yl)isoindolin-1-one], the pIC50 was 5.58.
Work on `O=C1NCc2cc(F)c(Nc3ncc(Cl)c(Nc4cc(C5CC5)[nH]n4)n3)cc21` [Compound 81, 6-(5-chloro-4-(5-cyclopropyl-1H-pyrazol-3-ylamino)pyrimidin-2-ylamino)-5-fluoroisoindolin-1-one] yielded a pIC50 of 5.64.
`Cc1cc(Nc2nc(Nc3cc4c(cc3F)CNC4=O)ncc2Cl)n[nH]1` [Compound 82, 6-(5-chloro-4-(5-methyl-1H-pyrazol-3-ylamino)pyrimidin-2-ylamino)-5-fluoroisoindolin-1-one] was tested, and the pIC50 was 5.58.
`Cc1cc2c(Nc3ncc(Cl)c(Nc4cc(C)[nH]n4)n3)cccc2nn1` [Compound 83, 5-chloro-N4-(5-methyl-1H-pyrazol-3-yl)-N2-(3-methylcinnolin-5-yl)pyrimidine-2,4-diamine] showed a pIC50 of 5.84.
For `Cc1cc(Nc2nc(Nc3cc(C)c(C4CCN(CC(N)=O)CC4)cn3)ncc2Cl)n[nH]1` [Compound 84, 2-(4-(6-(5-Chloro-4-(5-methyl-1H-pyrazol-3-ylamino)pyrimidin-2-ylamino)-4-methylpyridin-3-yl)piperidin-1-yl)acetamide], the pIC50 was 6.28.
Work on `Cc1cc(Nc2nc(Nc3ccc(C4CCNCC4)c4ccccc34)ncc2Cl)n[nH]1` [Compound 85, 5-chloro-N^4-(5-methyl-1H-pyrazol-3-yl)-N^2-(4-(piperidin-4-yl)naphthalene-1-yl)pyrimidine-2,4-diamine] yielded a pIC50 of 6.31.
`Cc1cc(Nc2nc(Nc3ccc(C4CCN(CC(N)=O)CC4)c4ccccc34)ncc2Cl)n[nH]1` [Compound 86, 2-(4-(4-(5-chloro-4-(5-methyl-1H-pyrazol-3-ylamino)pyrimidin-2-ylamino)naphthalene-1-yl)piperidin-1-yl)acetamide] was tested, and the pIC50 was 6.97.
For `CNC(=O)CN1CCC(c2ccc(Nc3ncc(Cl)c(Nc4cc(C)[nH]n4)n3)c3ccccc23)CC1` [Compound 87, 2-(4-(4-(5-chloro-4-(5-methyl-1H-pyrazol-3-ylamino)pyrimidin-2-ylamino)naphthalen-1-yl)piperidin-1-yl)-N-methylacetamide], the pIC50 was 7.09.
`Cc1cc(Nc2nc(Nc3ccc(C4CCN(CC(O)C(F)(F)F)CC4)c4ccccc34)ncc2Cl)n[nH]1` (stereo not shown) [Compound 88, 3-(4-(4-(5-chloro-4-(5-methyl-1H-pyrazol-3-ylamino)pyrimidin-2-ylamino)naphthalen-1-yl)piperidin-1-yl)-1,1,1-trifluoropropan-2-ol] was tested, and the pIC50 was 6.46.
Work on `CCN1CCc2ccc(Nc3ncc(Cl)c(Nc4cc(C)[nH]n4)n3)cc2CC1` [Compound 89] yielded a pIC50 of 7.06.
